{
  "source": "patent US9579334B2",
  "about": "“Iminosugars and methods of treating viral diseases” (Emergent Virology LLC, priority 2009, dated 2017)",
  "key": {"Vero cells": {"test_system": "Vero cells", "test": "Cytotoxicity towards Vero cells, LDH assay", "type": "cell-based, African green monkey", "settings": "for toxicity to the Vero cells: 0.122 up to 500 uM", "description": "Procedure. NB-DNJ, NN-DNJ and N7-O-DNJ at concentrations from 0.122 up to 500 uM were tested for cytotoxicity towards Vero cells. Vero cells (Afrika green monkey kidney epithelial cell line) obtained from American Type Culture Collection (ATCC, Manassas, Va.) were plated in cell culture treated 96-well flat bottom plates 24 hr prior to assay. Test were done in modified Eagle medium, supplemented with 2% fetal bovine serum, 2 mM L-glutamine, 100 U/ml penicillin, 100 ug/ml streptomycin, starting at 500 μM compounds, decreasing to 0.122 uM. Cells were cultured at 37° C., 5% CO2 incubator and the plates were assayed by LDH assay (CytoTox96, Promega, Wis.) according to the manufacturer's recommendations for induced cellular damage (release of cytoplasmic enzyme lactate dehydrogenase). OD readings were used to calculate and compare percent cytopathic effect of cells treated with compounds or controls. […] NN-DNJ begins to show toxicity to the cells at concentrations above ˜20 uM."}, "Dengue 2 strain S221": {"test_system": "Dengue 2 strain S221", "test": "Protection of AG129 mice against Dengue virus (survival)", "type": "in vivo", "description": "FIGS. 10 and 11 A-C show protection of mice against Dengue virus by UV-4 (N9-DNJ). In this model, AG129 mice, which are 129/Sv mice lacking receptors for both alpha/beta interferon and IFN-gamma, are infected with Dengue 2 strain S221 via intravenous injection. The mice die of TNF-a mediated acute/early death 4-5 days after infection, see Shresta, S., et al., J Virol, 2006. 80(20): p. 10208-17. Each experiment group contained 5 mice sex matched and 5-6 weeks old. The mice were injected intravenously via the tail vein with 10^11 genomic equivalents of DENV2 strain S221 30 min after the first N9-DNJ dose was administered orally. The N9-DNJ was administered orally twice daily at 200, 100, 50 and 10 mg/kg. The antiviral compound Ribavirin 100 mg/kg was given subcutaneously once daily and included as a positive control together with a PBS-only group. Animals displaying severe illness during the experiment (as determined by 20% weight loss, extreme lethargy, ruffled coat, or paralysis) were euthanized."}},
  "data": [
    {"smiles": "CCCOCCCCCCN1C[C@H](O)[C@@H](O)[C@H](O)[C@H]1CO", "note": "[N7-O-DNJ, N-(7-Oxadecyl)deoxynojirimycin]", "values": [
      {"measurement": "toxicity to the Vero cells", "setting": "Vero cells", "result": "non-toxic"}
    ]},
    {"smiles": "COCCCCCCCCCN1C[C@H](O)[C@@H](O)[C@H](O)[C@H]1CO", "note": "[N9-DNJ, N-(9-Methoxynonyl) deoxynojirimycin]", "values": [
      {"measurement": "survival, p vs. PBS", "setting": "Dengue 2 strain S221; 10 mg/kg orally twice daily", "result": 0.034},
      {"measurement": "survival, p vs. PBS", "setting": "Dengue 2 strain S221; 100 mg/kg orally twice daily", "result": 0.002},
      {"measurement": "survival", "setting": "Dengue 2 strain S221; DENV2 S221 i.v., orally twice daily at 200, 100, 50 and 10 mg/kg, all drug concentrations", "result": "statistically significant improvement in survival"}
    ]},
    {"smiles": "CCCCN1C[C@H](O)[C@@H](O)[C@H](O)[C@H]1CO", "note": "[NB-DNJ, N-Butyl deoxynojirimycin]", "values": [
      {"measurement": "toxicity to the Vero cells", "setting": "Vero cells", "result": "non-toxic"}
    ]},
    {"smiles": "CCCCCCCCCN1C[C@H](O)[C@@H](O)[C@H](O)[C@H]1CO", "note": "[NN-DNJ, N-Nonyl dexoynojirimycin]", "values": [
      {"measurement": "concentration above which toxicity to the cells begins to show", "setting": "Vero cells; Vero cells", "result": "> 20", "unit": "µM"}
    ]}
  ]
}
